Experiments:
Type in all cases: in vivo
[1] = system: HN5 (human head and neck tumor line); test: HN5 subcutaneous human xenograft mouse model, anti-tumor activity; settings: monotherapy, at highest dose; HN5 s.c. xenograft; FIG. 1
Experimental: HN5 cells were cultured in RPMI 1640+10% Fetal bovine serum, Sodium pyruvate and L-Glutamine at 37° in a 95/5% air/CO2 atmosphere. Cells were harvested following trypsin digestion and brought to a density of 2×10^6 cells/200 μl in PBS. Tumors were initiated by injection of the cell suspension subcutaneously in the axillary region.
For the xenograft models used here solid tumors were measured by electronic caliper measurement through the skin, measurements were typically made twice weekly. In the examples presented, tumors were monitored beyond the duration of therapy
Drugs were administered by P.O. or IV. routes. The title compound or salt thereof of Example 1 was formulated in aqueous 0.5% hydroxypropyl methylcellulose, 0.1% Tween 80 and administered as a suspension twice daily for 21 days as indicated in the respective figures. TAXOL® (paclitaxel) (Bristol Myers Squibb Co.) was purchased preformulated in Cremophor-EL saline and diluted into saline to a final Cremophor-EL concentration of 5 or 10% Cremophor-EL for 10 or 20 mg/kg TAXOL® (paclitaxel) therapy respectively. TAXOL® (paclitaxel) was administered IV., once a day, for 5 days (days 1-5 of Example 1 therapy) as indicated in the respective figures. […]

[2] = system: BT474 (human breast tumor line); test: BT474 subcutaneous human xenograft mouse model, anti-tumor activity; settings: monotherapy (Example 1 at the highest dose tested); BT474 s.c. xenograft; FIG. 2
Experimental: The BT474 xenograft was maintained by serial transplantation in SCID mice. Tumors are initiated by injection of tumor fragments subcutaneously in the axillary region.
Drugs were administered by P.O. or IV. routes. The title compound or salt thereof of Example 1 was formulated in aqueous 0.5% hydroxypropyl methylcellulose, 0.1% Tween 80 and administered as a suspension twice daily for 21 days as indicated in the respective figures. TAXOL® (paclitaxel) (Bristol Myers Squibb Co.) was purchased preformulated in Cremophor-EL saline and diluted into saline to a final Cremophor-EL concentration of 5 or 10% Cremophor-EL for 10 or 20 mg/kg TAXOL® (paclitaxel) therapy respectively. TAXOL® (paclitaxel) was administered IV., once a day, for 5 days (days 1-5 of Example 1 therapy) as indicated in the respective figures. Carboplatin (Sigma) was formulated in saline and was administered I.V., once a day, for two 5 day periods as indicated in the respective figure (days 1-5 and 15-19 of Example 1 therapy).

[3] = system: NCI H322 (human lung tumor line); test: NCI H322 subcutaneous human xenograft mouse model, anti-tumor activity; settings: monotherapy; NCI H322 s.c. xenograft; FIG. 3
Experimental: Cells were harvested following trypsin digestion and brought to a density of 2×10^6 cells/200 μl in PBS. Tumors were initiated by injection of the cell suspension subcutaneously in the axillary region. In addition some experiments were performed following serial transplantation of tumor fragments in SCID mice. Tumors were initiated by injection of tumor fragments subcutaneously in the axillary region.

SMILES | tumor growth inhibition [1] | tumor growth inhibition [2] | tumor growth inhibition [3]
N.N.O=C([O-])C1(C(=O)[O-])CCC1.[Pt+2] [Carboplatin, platinum, diammine [1,1-cyclobutane-dicarboxylate(2-)-O,O′]] | about 45% | – | –
CC(=O)O[C@H]1C(=O)[C@@]2(C)[C@H]([C@H](OC(=O)c3ccccc3)[C@]3(O)C[C@H](OC(=O)[C@H](O)[C@@H](NC(=O)c4ccccc4)c4ccccc4)C(C)=C1C3(C)C)[C@]1(OC(C)=O)CO[C@@H]1C[C@@H]2O [TAXOL® (paclitaxel), 5β,20-epoxy-1,2α,4,7β,10β,13α-hexa-hydroxytax-11-en-9-one 4,10-diacetate 2-benzoate 13-ester with (2R,3S)-N-benzoyl-3-phenylisoserine] | – | about 45% | about 45%
CS(=O)(=O)CCNCc1ccc(-c2ccc3ncnc(Nc4ccc(OCc5cccc(F)c5)c(Cl)c4)c3c2)o1 [Example 1, N-{3-Chloro-4-[(3-fluorobenzyl)oxy]phenyl}-6-[5-({[2-(methylsulfonyl)ethyl]amino}methyl)-2-furyl]-4-quinazolinamine] | about 80% | about 90% | 100-130%

From patent US8444988B2, “Cancer treatment method” (GlaxoSmithKline LLC, priority 2001, dated 2013)
